{"source": "patent US20230372333A1", "about": "“COMBINATION THERAPY FOR TREATING CANCER” (ASTRAZENECA AB, priority 2020, published 2023)", "key": {"SUM149PT xenograft model": {"system": "SUM149PT xenograft model", "test": "Anti-tumour efficacy of AZD5305, carboplatin and combination in SUM149PT xenograft model (Example 3)", "assay_type": "in vivo, mice", "conditions": "AZD5305 0.01 mg/kg PO QD, 28 days", "protocol": "SUM149PT cells (2×10^6) were implanted with 50% Matrigel into mammary fat pad (MFP) of female SCID mice (weight greater than 18 g). Tumours were measured (length×width) two times weekly by bilateral Vernier calliper measurements and tumour volume was calculated using elliptical formula (π/6×width×width×length). Animal bodyweight and tumour condition were monitored throughout the studies. Mice were randomised into treatment groups when mean tumour volume reached approximately 0.3 cm^3. Animals were treated from the day after the randomisation. Control animals were treated orally (PO) once daily (QD) with vehicle (deionised water acidified with HCl to pH 3.5-4) and intraperitoneally (IP) once weekly (QW) with PBS. AZD5305 was dosed PO QD at 0.1, 0.03 or 0.01 mg/kg. Carboplatin was dosed IP once weekly (QW) at 37.5 mg/kg. In the combination group, mice were dosed with carboplatin first, followed by AZD5305 administration within 10 minutes.\n(§1) Tumour growth inhibition from start of treatment was assessed by comparison of the mean change in tumour volume of the control and treated groups and represented as percent tumour growth inhibition (TGI, when TV≥starting TV) or regression (reg, when TV<starting TV). Mean percent body weight change from start of treatment was also calculated for all the groups. Statistical significance was evaluated using a one-tailed t test. […]"}, "[1]": {"system": "HBCx-9 patient-derived explant model", "test": "Anti-tumour efficacy of AZD5305, carboplatin and combination in HBCx-9 PDX model (Example 2)", "assay_type": "in vivo", "conditions": "carboplatin 50 mg/kg IP QW, 28 days, Nude female mice", "text": "HBCx-9 is a patient-derived tumour explant (PDX) model established in XenTech without prior in vitro culture. Tumour fragments were transplanted subcutaneously (SC) onto donor mice. When tumour volume reached 700 to 1764 mm^3, donor mice were sacrificed, and tumours were aseptically excised and dissected. After removing necrotic areas, tumours were cut into fragments measuring approximately 20 mm^3 and transferred in culture medium before grafting SC into the recipient (experimental) Nude female mice. Tumours were measured (length×width) two times weekly by bilateral Vernier calliper measurements and tumour volume was calculated using elliptical formula (π/6×width×width×length). Animal bodyweight and tumour condition were monitored throughout the study. Mice were randomised into treatment groups when mean tumour volume reached approximately 100 mm^3. Animals were treated from the day after the randomisation. […]\nas §1, with “TV≤starting” for “TV≥starting”"}, "HBCx-9": {"system": "HBCx-9", "conditions": "HBCx-9 TNBC PDX model, reference [2]; cited from earlier work"}}, "note": "Entries after “also recorded” stand apart in the source; their conditions may differ.", "data": [{"smiles": "CCc1cc2ncc(CN3CCN(c4ccc(C(=O)NC)nc4)CC3)cc2[nH]c1=O", "note": "[AZD5305, 5-[4-[(7-ethyl-6-oxo-5H-1,5-naphthyridin-3-yl)methyl]piperazin-1-yl]-N-methyl-pyridine-2-carboxamide]", "values": [{"measurement": "Tumour Growth Inhibition/Regression (end of treatment)", "setting": "SUM149PT xenograft model", "value": "did not inhibit tumour growth; also recorded: No TGI or regression"}]}, {"smiles": "N.N.O=C([O-])C1(C(=O)[O-])CCC1.[Pt+2]", "note": "[Carboplatin, carboplatin]", "values": [{"measurement": "Tumour Growth Inhibition/Regression (end of treatment): TGI", "setting": "[1]", "value": "88% TGI *** (p ≤ 0.001)"}, {"measurement": "Tumour Growth Inhibition/Regression (end of treatment): TGI", "setting": "[1]; listed as carboplatin", "value": 88, "unit": "%"}]}, {"smiles": "O=C(c1cc(Cc2n[nH]c(=O)c3ccccc23)ccc1F)N1CCN(C(=O)C2CC2)CC1", "note": "[olaparib]", "values": [{"measurement": "sensitivity of HBCx-9 to monotherapy", "setting": "HBCx-9", "value": "moderate sensitivity"}]}]}
